Values quoted from earlier work, collected in US20240139276A1, “HAIR GROWTH AGENT” (ADJUVANT HOLDINGS CO., LTD., priority 2021, published 2024).

Columns and labels:
[1] = system: vascular endothelial growth factor (VEGF) expression in human dermal papilla cells; conditions: adenosine allowed to act on human dermal papilla cells
[2] = system: fibroblast growth factor 7 (FGF-7) expression in human dermal papilla cells; conditions: adenosine allowed to act on human dermal papilla cells

Nc1ncnc2c1ncn2[C@@H]1O[C@H](CO)[C@@H](O)[C@H]1O [adenosine]
expression of vascular endothelial growth factor (VEGF) [1]: promotes expression of vascular endothelial growth factor (VEGF) | expression of fibroblast growth factor 7 (FGF-7) [2]: also promotes expression of fibroblast growth factor 7 (FGF-7)
